# Reference: US5804576A, “Derivatives of 5-androsten-17-ones and 5-androstan-17-ones” (Research Corporation Technologies, Inc., priority 1986, dated 1998)
# Several values for one entry are separate records, joined by “and”; a condition that tells them apart may be missing. Equal values may be shown once. Entries after “also recorded” stand apart in the source; their conditions may differ.
# Assays:
# [1] = tested on: cultured rat kidney epithelial cell line; conditions: cited from earlier work
# [2] = target: T1, purified bovine adrenal G6PDH (Bos taurus, UniProt F1MMK2); assay: Inhibition of purified bovine adrenal G6PDH; format: biochemical; conditions: for inhibition at 0.1 µM: Conc. 0.1 μm; for inhibition at 0.1 µM / inhibition at 1 µM / inhibition at 10 µM: read-out: Percent Inhibition (G6PDH)
# T1 construct: full-length, wild type, no tag
# T1 sequence (F1MMK2 31-70): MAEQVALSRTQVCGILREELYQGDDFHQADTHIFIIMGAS
# T1 sequence (F1MMK2 101-575): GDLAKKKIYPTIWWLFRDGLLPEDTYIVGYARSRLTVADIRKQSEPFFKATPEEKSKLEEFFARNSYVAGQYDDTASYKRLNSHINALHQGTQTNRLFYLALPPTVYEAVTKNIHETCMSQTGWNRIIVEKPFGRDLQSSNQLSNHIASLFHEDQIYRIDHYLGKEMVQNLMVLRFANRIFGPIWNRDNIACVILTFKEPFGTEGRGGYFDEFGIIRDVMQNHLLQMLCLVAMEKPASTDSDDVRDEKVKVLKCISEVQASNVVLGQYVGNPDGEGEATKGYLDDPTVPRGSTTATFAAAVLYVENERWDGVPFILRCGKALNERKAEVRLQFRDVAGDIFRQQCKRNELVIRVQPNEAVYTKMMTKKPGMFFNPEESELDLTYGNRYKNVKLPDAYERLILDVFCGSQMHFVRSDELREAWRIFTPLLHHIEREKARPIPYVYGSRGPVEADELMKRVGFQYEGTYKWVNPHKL
# Outline: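 Inhibition of purified bovine adrenal G6PDH enzyme activity, run by the published Oertel and Rebelein (1969) procedure.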
# [3] = tested on: C57BL/KsJ-db/db mice; assay: Anti-hyperglycemic activity (blood glucose); format: in vivo, mouse (C57BL/KsJ-db/db); conditions: for blood glucose lowering compared with DHEA (in words): compound 16 0.2% vs DHEA 0.4% of diet
# Protocol: C57BL/KsJ-db/db 8 week old female mice were obtained and housed in polycarbonate cages in animal quarters maintained at 24° C. with 12 h of light and 12 h of darkness each day.
# Mice were placed on a control chow or a chow diet containing either 0.4% DHEA or 0.2% of compound 16.
# For determination of blood glucose levels, mice were bled from the orbital sinus using a heparinized capillary tube. 0.2 ml of blood was added to 1.8 ml of water to hemolyze the blood and glucose concentration was determined using the glucose oxidase assay.
# [4] = tested on: rat uterus; assay: Uterotrophic test, subcutaneous (Compound 2 vs. DHEA); format: in vivo; conditions: n = 4 or 5
# Protocol: Twenty-two day old rats were obtained from Charles River Laboratories. Animals were used at 29 days of age. Test steroids were suspended by homogenization in sesame oil. Rats were orally intubated at 1-2 P.M. for 3 days with a test steroid in sesame oil or with sesame oil alone (control). On the 4th day the animals were killed and the uteri were removed and weighed.
# Compound 2 vs. DHEA. Compounds Administered by Subcutaneous Injection
# Steroids were dissolved in 2 ml ethanol and brought up to 5 ml volume with propylene glycol. Concentrations were such that 1 μl/gm body weight delivered the indicated dose.
# [5] = tested on: [3H]DMBA binding to skin DNA; assay: [3H]DMBA binding to skin DNA, oral steroid; format: in vivo, mouse (male A/J); conditions: four weeks treatment with 400 mg/kg
# [6] = tested on: HeLa cell strain, TCRC-2; conditions: HeLa TCRC-2; cited from earlier work
# [7] = tested on: rat uterus; assay: Estrogenic and anti-estrogenic activity (uterine weight, s.c., CD rats); format: in vivo, rat (female CD); conditions: for Mean Uterine Weight ± S.D.: 3 days, DHEA vs 16 experiment; for estrogenic / anti-estrogenic effect, uterine weight (in words): s.c., 60 mg/kg or higher, female CD rats
# Protocol: Female CD rats, 26-27 days old, were used. Rats were injected subcutaneously for 3 days with either DHEA or 16 in propylene glycol. Control rats received propylene glycol alone. The rats were killed on the 4th day and the uteri were removed and weighed.
# Female CD rats, 26-27 days old, were injected subcutaneously for 3 days with one of the compounds of the present invention at 60 mg/kg in propylene glycol. Controls received propylene glycol alone. On the 4th day the rats were killed and the uteri were dissected out and weighed.
# [8] = tested on: spontaneous breast cancer in C3H mice; conditions: long-term treatment; cited from earlier work
# [9] = tested on: (3H) DMBA binding to skin DNA; assay: [3H]DMBA binding to mouse skin DNA, topical steroid; format: in vivo, mouse (A/J)
# Source text: Skin tumors can be induced in the mouse either by weekly application of a carcinogen such as […] (DMBA), or alternatively,by a single sub-threshold dose of the carcinogen followed by twice weekly applications of the tumor promoter tetradecanoylphorbol-13-acetate (TPA). In order to exert its carcinogenic effect, DMBA must be metabolized by an NADPH-dependent mixed-function oxidase to chemically reactive intermediates which bind covalently to DNA and produce mutations leading to malignant transformation. […] This effect of DHEA very probably is a result of the inhibition of G6PDH and lowering of the intracellular pool of NADPH, which is a co-factor for the mixed-function oxidase activation of DMBA.
# Binding of [^3 H]DMBA to mouse skin DNA was determined as described in Pashko, L. L., and Schwartz, A. G. (1983), Effect of food restriction, dehydroepiandrosterone, or obesity on the binding of ^3 H-7,12-dimethylbenz(a)-anthracene to mouse skin DNA, J. Gerontol., 38, 8-12. Values are mean±SD for 3 individual determinations, with pooled tissue from 2 mice used for each determination. DHEA or testosterone (400 ug in 0.2 ml acetone) was applied to the skin one hour before [^3 H]DMBA. The mean weight of the food restricted mice was 18.5±1.0 gm, n=6, of the ad libitum fed, 27.4±1.0 gm, n=6, of the ad libitum fed treated with DHEA, 28.2±0.9 gm, n=6, and of the ad libitum fed treated with testosterone, 28.3±0.9 gm, n=6, following two weeks of feeding. The average food consumed was, in gm/mouse/day, 2.2, 3.8, 3.8 and 4.0 for the food restricted, ad libitum fed, ad libitum fed plus DHEA, and ad libitum fed plus testosterone groups, respectively.
# [10] = tested on: 3H-thymidine incorporation in mouse epidermis; conditions: in vivo; cited from earlier work
# [11] = tested on: DMBA-initiated and TPA-promoted skin papilloma formation in mice; conditions: mouse, in vivo; cited from earlier work
smiles,measurement,setting,value
"C[C@]12CC[C@H](O)CC1=CC[C@@H]1[C@@H]2CC[C@]2(C)C(=O)CC[C@@H]12 [DHEA, 3β-Hydroxy-5-androst-en-17-one, reference compound]",TPA stimulation of 3H-thymidine incorporation (in words),[1],antagonizes the capacity of the tumor promoter
same,inhibition at 0.1 µM,[2],12%
same,Percent Inhibition (G6PDH),[2]; Conc. 1 μm,17%
same,inhibition at 1 µM,[2]; Conc. 1 μm,36%
same,Percent Inhibition (G6PDH),[2]; Conc. 10 μm,57%
same,Percent Inhibition (G6PDH),"[2]; Conc. 10 μm, listed as 1",53%
same,inhibition at 10 µM,[2]; Conc. 10 μm,51%
same,Blood Glucose Levels,"[3]; 0.4% of diet, week 0",214 ± 59 mg/deciliter and 232 ± 28 mg/deciliter
same,Blood Glucose Levels,"[3]; 0.4% of diet, week 1",161 ± 19 mg/deciliter and 132 ± 14 mg/deciliter
same,Blood Glucose Levels,"[3]; 0.4% of diet, week 2",145 ± 19 mg/deciliter and 135 ± 37 mg/deciliter
same,Blood Glucose Levels,"[3]; 0.4% of diet, week 3",117 ± 12 mg/deciliter
same,Blood Glucose Levels,"[3]; 0.4% of diet, week 4",112 ± 4 mg/deciliter
same,Anti-diabetic Activity relative to DHEA,"[3]; Table 15, DHEA = 1×",1 ×
same,Blood Glucose Levels,"[3]; after 0.4% of diet, 24 hrs. on control diet",192 ± 32 mg/deciliter
same,Blood Glucose Levels,"[3]; after 0.4% of diet, 48 hrs. on control diet",310 ± 37 mg/deciliter
same,Mean Uterine Weight,[4]; 10 mg/kg s.c.,152 ± 17 Mgs
same,Mean Uterine Weight,[4]; 60 mg/kg s.c.,290 ± 72 Mgs
same,3H-DMBA binding to skin DNA (in words),[5],does inhibit ^3 H-DMBA binding to skin DNA
same,sensitivity to growth inhibition (in words),[6],particularly sensitive to DHEA-induced growth inhibition
same,Mean Uterine Weight ± S.D.,[7]; 60 mg/kg s.c.,222 ± 77 mg/100 gm body weight
same,spontaneous breast cancer development (in words),[8],markedly inhibits spontaneous breast cancer development
same,weight gain (in words),[8],reducing weight gain without suppressing appetite
same,SPECIFIC ACTIVITY ([3H]DMBA bound to skin DNA),"[9]; 400 ug topical one hour before DMBA, ad libitum fed, Table 4",66 ± 13 cpm/ug DNA
same,rate of binding of topically applied 3H-DMBA to skin DNA (in words),"[9]; topical, A/J mouse",inhibits the rate of binding of topically applied ^3 H-DMBA to A/J mouse skin DNA
same,3H-thymidine incorporation in mouse epidermis (in words),[10],antagonizes the capacity of the tumor promoter
same,inhibition of DMBA-initiated and TPA-promoted skin papilloma formation (in words),[11],inhibit
"C[C@H]1CC[C@@]2(C)C(=CC[C@@H]3[C@@H]2CC[C@]2(C)C(=O)CC[C@@H]32)C1 [Compound 16, 3β-methyl-5-androsten-17-one]",inhibition at 0.1 µM,[2],25%
same,inhibition at 1 µM,[2]; Conc. 1 μm,40%
same,inhibition at 10 µM,[2]; Conc. 10 μm,53%
same,Blood Glucose Levels,"[3]; 0.2% of diet, week 0, listed as Cpd 16",216 ± 61 mg/deciliter
same,Blood Glucose Levels,"[3]; 0.2% of diet, week 0, listed as Cpd. 16",244 ± 32 mg/deciliter
same,Blood Glucose Levels,"[3]; 0.2% of diet, week 1, listed as Cpd 16",135 ± 15 mg/deciliter
same,Blood Glucose Levels,"[3]; 0.2% of diet, week 1, listed as Cpd. 16",143 ± 21 mg/deciliter
same,Blood Glucose Levels,"[3]; 0.2% of diet, week 2, listed as Cpd 16",118 ± 12 mg/deciliter
same,Blood Glucose Levels,"[3]; 0.2% of diet, week 2, listed as Cpd. 16",134 ± 13 mg/deciliter
same,Blood Glucose Levels,"[3]; 0.2% of diet, week 3",102 ± 8 mg/deciliter
same,Blood Glucose Levels,"[3]; 0.2% of diet, week 4",105 ± 5 mg/deciliter
same,Blood Glucose Levels,"[3]; after 0.2% of diet, 24 hrs. on control diet",147 ± 10 mg/deciliter
same,Blood Glucose Levels,"[3]; after 0.2% of diet, 48 hrs. on control diet",262 ± 23 mg/deciliter
same,blood glucose lowering compared with DHEA (in words),[3],more effective in lowering blood glucose concentration
same,blood glucose lowering compared with DHEA (in words),[3]; listed as compound 16,significantly more slowly in the mice that had received compound 16
same,Mean Uterine Weight ± S.D.,[7]; 60 mg/kg s.c.,126 ± 87 mg/100 gm body weight
same,Mean Uterine Weight ± S.D.,[7]; 120 mg/kg s.c.,111 ± 27 mg/100 gm body weight
same,"estrogenic / anti-estrogenic effect, uterine weight (in words)",[7]; 60 mg/kg,reduction in uterine weight; also recorded: apparently acts as an anti-estrogen
same,"estrogenic / anti-estrogenic effect, uterine weight (in words)","[7]; listed as cmpd. 16, 60 mg/kg",significantly greater than that of the cmpd. 21 treated rats; also recorded: highly significant anti-estrogenic activity
same,inhibition of DMBA-initiated and TPA-promoted skin papilloma formation (in words),[11],inhibit
